Results published in article PMC5289892 (ACS chemical biology, 2016).

Assays:
1483 HNSCC cells [1] = assay: Cell viability assay; type: cell-based, human; conditions: 48 h
[2] = Animal weight in xenograft-bearing mice; conditions: 1483 xenograft-bearing mice, 14 days treatment
ovine COX-1 = molecular target: T1, ovine COX-1 (Ovis aries, UniProt P05979); assay: Purified COX-1 enzyme inhibition assay; type: biochemical
T1 sequence (P05979 25-600): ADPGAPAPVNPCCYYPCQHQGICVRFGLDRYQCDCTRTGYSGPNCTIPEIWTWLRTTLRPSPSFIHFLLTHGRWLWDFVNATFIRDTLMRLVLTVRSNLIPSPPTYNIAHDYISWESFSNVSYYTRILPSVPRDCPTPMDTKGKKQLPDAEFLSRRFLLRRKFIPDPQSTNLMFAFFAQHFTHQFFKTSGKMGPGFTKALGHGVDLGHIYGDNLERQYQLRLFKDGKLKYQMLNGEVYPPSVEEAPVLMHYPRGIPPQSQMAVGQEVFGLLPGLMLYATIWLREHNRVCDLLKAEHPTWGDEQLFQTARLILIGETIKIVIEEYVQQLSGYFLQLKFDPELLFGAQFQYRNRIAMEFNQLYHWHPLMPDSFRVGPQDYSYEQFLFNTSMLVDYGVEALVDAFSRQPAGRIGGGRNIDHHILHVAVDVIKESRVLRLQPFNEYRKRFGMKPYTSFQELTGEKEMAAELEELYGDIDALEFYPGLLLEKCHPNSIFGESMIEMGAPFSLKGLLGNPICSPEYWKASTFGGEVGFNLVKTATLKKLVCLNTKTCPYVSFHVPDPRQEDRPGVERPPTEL

1483 HNSCC xenografts = assay: In vivo tumor growth, 1483 HNSCC xenografts; conditions: 1483 xenograft-bearing nude mice, daily intraperitoneal, 14 days
1483 HNSCC cells [3] = assay: Reversibility of inhibition of 1483 cell growth; type: cell-based, human; conditions: 1483 cells
mouse COX-2 = molecular target: T2, mouse COX-2 (Mus musculus, UniProt Q05769); assay: Purified COX-2 enzyme inhibition assay; type: biochemical
T2 sequence (Q05769 18-604): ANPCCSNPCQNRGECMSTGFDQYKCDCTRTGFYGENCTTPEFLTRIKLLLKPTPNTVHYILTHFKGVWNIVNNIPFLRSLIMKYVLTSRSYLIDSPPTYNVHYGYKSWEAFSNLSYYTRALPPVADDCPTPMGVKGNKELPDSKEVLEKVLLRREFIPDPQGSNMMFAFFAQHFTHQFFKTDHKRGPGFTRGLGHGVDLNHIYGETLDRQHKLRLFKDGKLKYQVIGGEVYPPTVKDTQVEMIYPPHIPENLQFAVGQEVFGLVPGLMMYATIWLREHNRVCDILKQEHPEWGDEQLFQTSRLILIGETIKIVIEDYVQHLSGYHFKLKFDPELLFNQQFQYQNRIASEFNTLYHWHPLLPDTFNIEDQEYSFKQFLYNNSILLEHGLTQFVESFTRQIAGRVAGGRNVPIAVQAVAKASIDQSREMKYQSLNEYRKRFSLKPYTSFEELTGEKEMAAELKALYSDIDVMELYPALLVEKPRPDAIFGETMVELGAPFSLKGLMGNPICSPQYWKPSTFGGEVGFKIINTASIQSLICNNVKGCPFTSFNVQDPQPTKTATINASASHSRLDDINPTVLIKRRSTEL

[4] = test system: primary human mammary epithelial cells (HMEC); assay: Cell viability assay; type: cell-based; conditions: 48 h, read-out: EC50 cytostatic effect

COc1cc([C@@H]2c3cc4c(cc3[C@H](O)[C@H]3COC(=O)[C@H]23)OCO4)cc(OC)c1OC [Podophyllotoxin]
lowest cell number reached, % of vehicle-treated cultures (1483 HNSCC cells [1]; 1483 cells): ~ 35% | EC50 (1483 HNSCC cells [1]; Homo sapiens, read-out: EC50 reduction in cell number): 62 nM | effect on animal weight [2]: decrease in animal weight | COX-1 inhibition, in words (ovine COX-1): inactive | effect on tumor growth (1483 HNSCC xenografts): no effect on tumor size | effect of washout on reduction in cell number (1483 HNSCC cells [3]; 10 μM for 5 h, washout, further 72 h): significant recovery of cell number | reduction of total cell number (1483 HNSCC cells [3]; 10 μM, 72 h): ~ 80% | COX-2 inhibition, in words (mouse COX-2): inactive | EC50 [4]: 360 nM
